# According to patent US20190255175A1, “ACTIVATION OF TRPA1+ NOCICEPTORS IN THE VAGUS NERVE ATTENUATES SYSTEMIC INFLAMMATION” (THE FEINSTEIN INSTITUTE FOR MEDICAL RESEARCH, priority 2018, published 2019):
# Assays:
# [1] = system: sensory nodose ganglion neurons; assay: Calcium influx (fluorescence) in sensory nodose ganglion neurons from VGlut2-GCaMP3 mice; assay type: cell-based; details: IL-1β 20 μg/ml; 6 out of 332 neurons
# Protocol: (§1) Using patch clamp recordings, IL-1β responses were recorded in nodose ganglion neurons. Application of IL-1β (20 μg/ml) induced calcium influx as indicated by increase of fluorescence in 6 out of 332 (1.8%) sensory nodose ganglion neurons from VGlut2-GCaMP3 mice. Next, whole-cell patch clamp recordings were carried out on the same neurons that responded to IL-1β in calcium influx analysis. When the membrane potential was held at −65 mV, bath application of IL-1β (20 μg/ml) produced slow inward currents in 4 out of 332 (1.2%) nodose neurons. The amplitude of IL-1β induced currents are 108±23 pA (n=4). […] In current-clamp mode, IL-1β reduced action potential threshold from −25±2 mV to −31±3 mV (n=4). […] To further determine the potential interaction of TRPA1 with IL-1β, nodose ganglion neurons from TRPA1 KO mice were examined in a culture system. […] IL1R1 co-localizes with TRPA1 on nodose ganglion neurons, as was determined using immunohistochemical staining.
# [2] = system: nodose ganglion neurons; assay: Whole-cell patch clamp recordings of nodose ganglion neurons; assay type: cell-based, mice
# Protocol: Whole-cell patch clamp recordings were made with glass pipettes pulled on a P-97 electrode puller (Sutter Instruments, Novato, Calif.). The resistance of the pipettes was 2-4 MΩ when filled with an intracellular solution (in mM: CsCl 140, HEPES 10, EGTA 5, Mg-ATP 2, NaGTP 0.3, MgCl2 2, Phosphocreatine 10, pH 7.25 adjusted with CsOH). Cells were superfused at a rate of 2 ml/min with an external bath solution containing the following (in mM): 150 NaCl, 2.5 KCl, 10 HEPES, 10 D-glucose, 2 CaCl2, and 1 MgCl2, pH 7.3-7.4. Experiments were performed at room temperature (22-24° C.). Currents from neurons were monitored with an Multiclamp 700B amplifier (Molecular Devices, Union City, Calif.), acquired through Digidata 1550B (Molecular Devices) onto a computer using pClamp 11 software (Molecular Devices). Data were analyzed using Clampfit 11 (Molecular Devices). All chemicals used for electrophysiological recordings were purchased from Sigma. All drugs and solutions were made fresh from drug stock solutions.
# as §1
# [3] = system: vagus nerve; assay: Cervical vagus nerve electrophysiological recording after IL-1β challenge; assay type: in vivo, mice
# Protocol: FIG. 3. TRPA1 is required for IL-1β induced vagus nerve signaling. Vagus nerve firing rate in 60s-Bins (mean±SEM) starting 5 min prior to IL-1β injection (350 ng/kg) indicated by arrow followed by 5 min post injection time.
# Mice were induced with general anesthesia using isoflurane at 2.5% in 100% oxygen at a flow rate of 1 L/min. Once anesthetized, the mouse was moved to a supine position with the isoflurane maintained at 2.0% during surgery. The nerve was then isolated as described in previous publications^10,11,17. The core body temperature was monitored with a rectal probe and maintained around 37° C. with a heating pad and heat lamp. Prior to recording and nerve placement within the cuff, the electrode was submerged briefly in saline solution.
# The electrophysiological signals were digitized from the vagus nerve using a Plexon data acquisition system (Omniplex, Plexon Inc., Dallas, Tex.). Recordings were sampled at 40 kHz with a 120 Hz filter and 50 gain. All signals were recorded from a bipolar cuff electrode referenced to the animal ground placed between the right salivary gland and the skin. In experiments with IL-1β challenge, following acquisition of the baseline activity (10 min), 350 ng/kg recombinant human IL-1β (eBioscience, San Diego, Calif.) was administered intraperitoneally; recordings were then continued for 10 min post-injection.
# Analysis of raw recordings was done on Spike2 software (version 7, CED). Raw recordings were filtered (using a high pass filter) and smoothed. To identify neural signals, a user-specific adaptive threshold was employed. All signals were identified as neuronal or non-neuronal. Non-neuronal signals, which consisted mainly of cardiac and respiratory components, were manually removed. All recordings with no identifiable neuronal spikes were removed from analyses.
# To recognize how knocking out TRPA1 further effects inflammatory signaling, TRPA1 KO and WT mice were injected with either saline or IL-1β ([…]).
# To further determine fiber specificity, a TRPV1 cell depletion model was employed by breeding TRPV1-Cre mice with ROSA-DTA mice. […] To identify if TRPV1 itself is necessary for propagation of the signal, recordings were done in a genetic TRPV1 knockout (TRPV1 KO) mouse. […] To determine a molecular target on TRPV1+ neurons mediating afferent IL-1β signaling, the cation channel TRPA1 was identified. TRPA1 is found on a subset of TRPV1+ neurons; approximately 30%. However, TRPA1 co-localized with TRPV1 on 97% of TRPA1+ neurons^26.
substance,measurement,setting,value
"IL-1β: interleukin 1β; recombinant human IL-1β for nerve recordings, murine (rmIL-1β) for thermoregulation",Neurons showing calcium influx (increase of fluorescence),[1],1.8%
same,Neurons with slow inward currents,"[2]; IL-1β 20 μg/ml bath application, held at −65 mV, 4 out of 332 neurons",1.2%
same,Amplitude of IL-1β induced currents,"[2]; IL-1β 20 μg/ml, −65 mV, n=4",108±23 pA
same,Action potential threshold after IL-1β,"[2]; current-clamp mode, reduced from −25±2 mV, n=4",−31±3 mV
same,Vagus nerve activation,[3]; TRPA1 KO mice,fails to induce activation of the vagus nerve
same,Vagus nerve activity,[3]; TRPV1 KO mice,significant increase
same,Vagus nerve activity,[3]; TRPV1 cell depletion model (TRPV1-Cre x ROSA-DTA mice),No significant enhancement of vagus nerve activity
same,Vagus nerve activation,[3]; wild type mice,induces activation of the vagus nerve
